From patent US10336762B2 (priority 2017, dated 2019)
Where two headings read alike, the source gives them in different places.

What was measured:
TNFα = test: cells; assay type: cell-based, human; conditions: Homo sapiens, Monocyte, LPS-stimulated human monocytes, read-out: EC50 TNF
IRAK4 enzyme = IRAK4 enzyme (Homo sapiens (Human), UniProt Q9NWZ3); test: biochemical; assay type: biochemical; conditions: IRAK4 enzyme, 500 μM ATP
IRAK4 enzyme, sequence (Q9NWZ3 whole entry): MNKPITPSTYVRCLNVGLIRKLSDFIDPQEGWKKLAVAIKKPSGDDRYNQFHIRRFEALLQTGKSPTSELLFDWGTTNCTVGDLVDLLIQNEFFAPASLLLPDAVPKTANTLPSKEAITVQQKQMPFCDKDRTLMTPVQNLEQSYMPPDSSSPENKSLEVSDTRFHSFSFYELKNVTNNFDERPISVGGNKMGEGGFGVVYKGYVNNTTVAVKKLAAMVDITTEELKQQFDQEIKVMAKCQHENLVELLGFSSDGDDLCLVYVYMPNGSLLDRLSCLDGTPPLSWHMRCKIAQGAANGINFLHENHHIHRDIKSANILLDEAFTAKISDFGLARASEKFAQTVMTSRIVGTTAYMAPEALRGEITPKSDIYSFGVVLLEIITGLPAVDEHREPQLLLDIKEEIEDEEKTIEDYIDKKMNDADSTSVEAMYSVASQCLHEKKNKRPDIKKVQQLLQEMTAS

| SMILES | EC50 (TNFα; TNFα content) | IC50 (IRAK4 enzyme; TR-FRET (HTRF)) | EC50 (TNFα; TNFα by TR-FRET) | IC50 (IRAK4 enzyme; TR-FRET) |
| --- | --- | --- | --- | --- |
| CC(C)(O)[C@H](F)CNC(=O)c1cnc(-c2ccc3cc(C#N)cnn23)cc1Nc1cncc(C(N)=O)c1 [Example 592, (R)-4-((5-carbamoyl-pyridin-3-yl)amino)-6-(3-cyanopyrrolo[1,2-b]pyridazin-7-yl)-N-(2-fluoro-3-hydroxy-3-methylbutyl) nicotinamide] | 222 nM | 1 nM |  |  |
| C[C@H](NC(=O)c1cnc(-c2ccc3cc(C#N)cnn23)cc1NC12CCC(O)(CC1)CC2)C(=O)N1CC(F)(F)C1 [Example 942, (S)-6-(3-cyanopyrrolo[1,2-b]pyridazin-7-yl)-N-(1-(3,3-difluoroazetidin-1-yl)-1-oxopropan-2-yl)-4-((4-hydroxybicyclo[2.2.2]octan-1-yl)amino) nicotinamide] |  |  | 587 nM | 8 nM |
| CC(C)(O)[C@H](F)CNC(=O)c1cnc(-c2ccc3cc(C#N)cnn23)cc1Nc1ccnnc1 [Example 183, (R)-6-(3-cyanopyrrolo[1,2-b]pyridazin-7-yl)-N-(2-fluoro-3-hydroxy-3-methylbutyl)-4-(pyridazin-4-ylamino)nicotinamide] | 657 nM |  |  | 6 nM |
| CC(C)(O)[C@H](F)CNC(=O)c1cnc(-c2ccc3cc(C#N)cnn23)cc1NC1CCC(C(=O)N2CC(F)(F)C2)CC1 (stereo partly drawn) [Example 174, 6-(3-cyanopyrrolo[1,2-b]pyridazin-7-yl)-4-(((1r,4R)-4-(3,3-difluoroazetidine-1-carbonyl)cyclohexyl)amino)-N-((R)-2-fluoro-3-hydroxy-3-methylbutyl)nicotinamide] | 92 nM |  |  | 1 nM |
| CC(C)(O)[C@H](F)CNC(=O)c1cnc(-c2ccc3cc(C#N)cnn23)cc1Nc1sc2c(c1C(N)=O)CCCC2 [Example 365, (R)-4-((3-carbamoyl-4,5,6,7-tetrahydrobenzo[b]thiophen-2-yl)amino)-6-(3-cyanopyrrolo[1,2-b]pyridazin-7-yl)-N-(2-fluoro-3-hydroxy-3-methylbutyl)nicotinamide] | 415 nM |  |  | 4 nM |
| C=CC(=O)N[C@H]1CC[C@H](Nc2cc(-c3ccc4cc(C#N)cnn34)ncc2C(=O)NC[C@@H](F)C(C)(C)O)CC1 [Example 425, 4-(((1r,4R)-4-acrylamidocyclohexyl)amino)-6-(3-cyano-pyrrolo[1,2-b]pyridazin-7-yl)-N-((R)-2-fluoro-3-hydroxy-3-methylbutyl) nicotinamide] | 120 nM | 2 nM |  |  |
| CNC(=O)c1cnc(-c2ccc3cc(C#N)cnn23)cc1NC12CC(NC(C)=O)(C1)C2 [Example 498, 4-((3-acetamidobicyclo[1.1.1]pentan-1-yl)amino)-6-(3-cyanopyrrolo[1,2-b]pyridazin-7-yl)-N-methyl-nicotinamide] | 43 nM | 1 nM |  |  |
| Cn1cc(CNc2cc(-c3ccc4cc(C#N)cnn34)ncc2C(=O)NC[C@@H](F)C(C)(C)O)cn1 [Example 104, (R)-6-(3-cyanopyrrolo[1,2-b]pyridazin-7-yl)-N-(2-fluoro-3-hydroxy-3-methylbutyl)-4-(((1-methyl-1H-pyrazol-4-yl)methyl)amino) nicotinamide] | 274 nM |  |  | 6 nM |
| CC(C)(O)[C@H](F)CNC(=O)c1cnc(-c2ccc3cc(C#N)cnn23)cc1N[C@H]1CC[C@H](NC(=O)OCC2CC2)CC1 [Example 287, cyclopropylmethyl ((1R,4r)-4-((2-(3-cyanopyrrolo[1,2-b]pyridazin-7-yl)-5-(((R)-2-fluoro-3-hydroxy-3-methylbutyl)carbamoyl)pyridin-4-yl)amino)cyclohexyl)carbamate] | 147 nM |  |  | 1 nM |
| CN(C(=O)CNC(=O)c1cnc(-c2ccc3cc(C#N)cnn23)cc1NC12CCC(O)(CC1)CC2)C(C)(C)C [Example 814, N-(2-(tert-butyl(methyl)amino)-2-oxoethyl)-6-(3-cyanopyrrolo[1,2-b]pyridazin-7-yl)-4-((4-hydroxybicyclo[2.2.2]octan-1-yl)amino) nicotinamide] |  |  | 40 nM | < 1 nM |
| CC(C)(O)[C@H](F)CNC(=O)c1cnc(-c2ccc3cc(C#N)cnn23)cc1Nc1ccc(CN2CCCC2=O)cc1 [Example 200, (R)-6-(3-cyanopyrrolo[1,2-b]pyridazin-7-yl)-N-(2-fluoro-3-hydroxy-3-methylbutyl)-4-((4-((2-oxopyrrolidin-1-yl)methyl)phenyl)amino) nicotinamide] | 15 nM |  |  | 1 nM |
| CNC(=O)c1cnc(-c2ccc3cc(C#N)cnn23)cc1NC12CC(NC(=O)C3CC3)(C1)C2 [Example 480, 6-(3-cyanopyrrolo[1,2-b]pyridazin-7-yl)-4-((3-(cyclopropanecarboxamido)bicyclo[1.1.1]pentan-1-yl)amino)-N-methylnicotin-amide] | 92 nM | 2 nM |  |  |
| C[C@@H](O)C(=O)N1CCC(Nc2cc(-c3ccc4cc(C#N)cnn34)ncc2C(=O)NC[C@@H](F)C(C)(C)O)CC1 [Example 324, 6-(3-cyanopyrrolo[1,2-b]pyridazin-7-yl)-N-((R)-2-fluoro-3-hydroxy-3-methylbutyl)-4-((1-((R)-2-hydroxy-propanoyl)piperidin-4-yl)amino)nicotinamide] | 157 nM |  |  | 2 nM |
| CC(C)(O)[C@H](F)CNC(=O)c1cnc(-c2ccc3cc(C#N)cnn23)cc1Nc1ccc(F)nc1 [Example 599, (R)-6-(3-cyano-pyrrolo[1,2-b]pyridazin-7-yl)-N-(2-fluoro-3-hydroxy-3-methylbutyl)-4-((6-fluoro-pyridin-3-yl)amino) nicotinamide] | 68 nM | < 1 nM |  |  |
| CC(C)(O)[C@H](F)CNC(=O)c1cnc(-c2ccc3cc(C#N)cnn23)cc1Nc1cnc(Cl)nc1 [Example 971, (R)-4-((2-chloropyrimidin-5-yl)amino)-6-(3-cyano-pyrrolo[1,2-b]pyridazin-7-yl)-N-(2-fluoro-3-hydroxy-3-methylbutyl)nicotinamide] |  |  | 74 nM | < 1 nM |
| CCCOc1cncc(Nc2cc(-c3ccc4cc(C#N)cnn34)ncc2C(=O)NC[C@@H](F)C(C)(C)O)c1 [Example 849, (R)-6-(3-cyanopyrrolo[1,2-b]pyridazin-7-yl)-N-(2-fluoro-3-hydroxy-3-methylbutyl)-4-((5-propoxy-pyridin-3-yl)amino) nicotinamide] |  |  | 11 nM | < 1 nM |
| COC(=O)[C@@H](C)NC(=O)c1cnc(-c2ccc3cc(C#N)cnn23)cc1NC12CCC(O)(CC1)CC2 [Example 340, methyl (6-(3-cyano-pyrrolo[1,2-b]pyridazin-7-yl)-4-((4-hydroxy-bicyclo[2.2.2]octan-1-yl)amino)nicotinoyl)-D-alaninate] | 139 nM |  |  | 1 nM |
| CNC(=O)O[C@H]1CC[C@@H](Nc2cc(-c3ccc4cc(C#N)cnn34)ncc2C(=O)NC[C@@H](F)C(C)(C)O)CC1 [Example 168, (1S,4s)-4-((2-(3-cyano-pyrrolo[1,2-b]pyridazin-7-yl)-5-(((R)-2-fluoro-3-hydroxy-3-methylbutyl)carbamoyl)pyridin-4-yl)amino)cyclohexyl methylcarbamate] | > 10000 nM |  |  | 1000 nM |
| CC(C)(O)[C@H](F)CNC(=O)c1cnc(-c2ccc3cc(C#N)cnn23)cc1Nc1ccc2c(c1)CN(C1COC1)C2 [Example 864, (R)-6-(3-cyanopyrrolo[1,2-b]pyridazin-7-yl)-N-(2-fluoro-3-hydroxy-3-methylbutyl)-4-((2-(oxetan-3-yl)isoindolin-5-yl)amino) nicotinamide] |  |  | 69 nM | < 1 nM |
| CC(C)(O)[C@H](F)CNC(=O)c1cnc(-c2ccc3cc(C#N)cnn23)cc1NCc1cn[nH]c1 [Example 181, (R)-4-(((1H-pyrazol-4-yl)methyl)amino)-6-(3-cyanopyrrolo[1,2-b]pyridazin-7-yl)-N-(2-fluoro-3-hydroxy-3-methylbutyl)nicotinamide] | > 10000 nM |  |  | 1000 nM |
| CNC(=O)c1cnc(-c2ccc3cc(C#N)cnn23)cc1N[C@H]1C[C@H](C(=O)NC)C1 [Example 472, 6-(3-cyanopyrrolo[1,2-b]pyridazin-7-yl)-N-methyl-4-(((1r,3r)-3-(methylcarbamoyl)cyclobutyl)amino) nicotinamide] | 5410 nM | 43 nM |  |  |
| CC(C)(O)[C@H](F)CNC(=O)c1cnc(-c2ccc3cc(C#N)cnn23)cc1NC[C@@H](F)C(C)(C)O [Example 560, 6-(3-cyanopyrrolo[1,2-b]pyridazin-7-yl)-N-((R)-2-fluoro-3-hydroxy-3-methylbutyl)-4-(((R)-2-fluoro-3-hydroxy-3-methylbutyl)amino) nicotinamide] | 83 nM | < 1 nM |  |  |
| CNC(=O)c1cnc(-c2ccc3cc(C#N)cnn23)cc1N[C@H]1CC[C@@H](C(=O)NC)C1 [Example 465, 6-(3-cyanopyrrolo[1,2-b]pyridazin-7-yl)-N-methyl-4-(((1S,3R)-3-(methyl-carbamoyl)cyclopentyl)amino)nicotinamide] | 411 nM | 8 nM |  |  |
| CC(C)(O)C1CCC(Nc2cc(-c3ccc4cc(C#N)cnn34)ncc2C(=O)NC[C@@H](F)C(C)(C)O)CC1 (stereo partly drawn) [Example 273, 6-(3-cyanopyrrolo[1,2-b]pyridazin-7-yl)-N-((R)-2-fluoro-3-hydroxy-3-methylbutyl)-4-(((1r,4R)-4-(2-hydroxypropan-2-yl)cyclohexyl)amino) nicotinamide] | 22 nM |  |  | 2 nM |
| COC(=O)NCC1(F)CC(Nc2cc(-c3ccc4cc(C#N)cnn34)ncc2C(=O)NC[C@@H](F)C(C)(C)O)C1 (stereo partly drawn) [Example 758, (R)-methyl ((3-((2-(3-cyanopyrrolo[1,2-b]pyridazin-7-yl)-5-((2-fluoro-3-hydroxy-3-methylbutyl)carbamoyl)pyridin-4-yl)amino)-1-fluorocyclobutyl)methyl)carbamate] | 11 nM | 1 nM |  |  |
| CC(C)Nc1cc(-c2ccc3cc(C#N)cnn23)ncc1C(=O)NS(C)(=O)=O [Example 34, 6-(3-cyanopyrrolo[1,2-b]pyridazin-7-yl)-4-(isopropylamino)-N-(methylsulfonyl) nicotinamide] | > 10000 nM |  |  | 9380 nM |
